One data set addresses T1, Human heart chymase (Homo sapiens, UniProt P23946).
T1 construct: Human heart chymase was purified according to the method of Urata et al; from tissue; host or cells: human heart
T1 sequence (P23946 22-247): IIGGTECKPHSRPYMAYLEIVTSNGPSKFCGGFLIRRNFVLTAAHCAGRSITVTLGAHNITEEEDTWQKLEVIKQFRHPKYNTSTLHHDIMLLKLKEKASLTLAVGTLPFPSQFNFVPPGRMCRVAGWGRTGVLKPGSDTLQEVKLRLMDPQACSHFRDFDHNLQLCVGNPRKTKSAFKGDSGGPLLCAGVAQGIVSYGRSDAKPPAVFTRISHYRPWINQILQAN
Nature of the data set: Inhibitory activity of test compounds to human chymase (Suc-Ala-Ala-Pro-Phe-MCA substrate). The class given is biochemical. The conditions noted are these: purified human heart chymase, preincubated 10 min at 30° C., pH 7.5. The protocol: Human heart chymase was purified according to the method of Urata et al. (J. Biol. Chem. 265: 22348, 1990). The inhibitory activity of the compound of the present invention was determined as follows. Purified enzyme was diluted with 0.1 M Tris-HCl buffer (pH 7.5) containing 1 M sodium chloride and 0.01% Triton X-100 to appropriate concentrations. Suc-Ala-Ala-Pro-Phe-MCA (Peptide Institute Inc.) was dissolved in 10 mM dimethyl sulfoxide (hereinafter referred to as DMSO) and diluted 20-fold with 0.1 M Tris-HCl buffer (pH 7.5) containing 1 M sodium chloride and 0.01% Triton X-100 to an appropriate concentration to prepare substrate solution.
5 μl of the test sample in DMSO was added to 75 μl of the enzyme solution and preincubated at 30° C. for 10 minutes. Then, 20 μl of the substrate solution was added to the test sample-enzyme mixture, and incubated at 30° C. Ten minutes later, 50 μl of 30% acetic acid was added to stop the enzymatic reaction, and the amount of AMC formed was determined using a fluorophotometer. At the same time, 5 μl of DMSO in stead of the test sample was added and reacted simultaneously as a control. The inhibitory activity to human chymase was calculated based on the value of the control, and then the inhibition percentage and the 50% inhibition concentration (IC50) were determined.

The conditions of data set [1]: human, pH 7.2.
Experimental: 2 μl of 1 mM test sample in DMSO was added to 198 μl of 50% of human plasma solution in a 50 mM sodium phosphate buffer (pH 7.2) and incubated at 30° C. At 0, 5, and 15 minutes, 800 μl of acetonitrile was added to the test sample-plasma mixture, which was mixed and deproteinized. The supernatant obtained by centrifugation (12,000 rpm, one minute) was diluted with the same volume of distilled water, and the intact compound in the solution was determined by HPLC analysis.
The half life (t1/2) of the test sample in the plasma solution was calculated from the recovery at each time point using an exponential regression analysis.
In data set [2] the test system is lipid deposition in the aorta. Nature of the data set: Aortic lipid deposition model in hamster induced by high-cholesterol diet. Particulars: 100 mg/kg/day orally for 12 weeks. The class given is in vivo, Golden Syrian hamsters. As for the experimental part: An aorta lipid deposition model was induced by a high-cholesterol diet. A high-cholesterol diet was prepared by adding 0.5% cholesterol and 10% coconut oil (KBT Oriental Co.) to a standard rodent feed containing 5.1% fat and 0.07% cholesterol (KBT oriental Co.). 8-week-old male Golden Syrian hamsters (KBT Oriental Co.) (100-130 g) were given the high-cholesterol diet for 12 weeks to induce lipid deposition in the aorta. A group to which a standard rodent feed was given for 12 weeks was used as the control.
An aortic lipid deposition model was generated as described in Example 3 and used as the high-cholesterol diet group (n=6). A group that received the standard rodent diet for 12 weeks was used as the control group (n=6). […]
The effect on lipid deposition by the chymase no inhibitor was evaluated by harvesting the aorta on week 12 after the start of the high-cholesterol diet and performing a histopathological analysis. […]
Then, the sections were washed with 60% isopropanol and distilled water, and counterstained with hematoxylin for 2 minutes. After washing with 1/4 saturated LiCO3, lipid deposition was evaluated by microscopic observation. Also, the area of the lipid deposition region (the region stained to an orange color with Oil red O) was quantitated on the histological pictures by NIH Image software ver. […]

The source of these data is patent US6921766B1, “Blood vessel lipid deposition-preventive agent comprising chymase-inhibitor” (Daiichi Suntory Pharma Co., Ltd., priority 1999, dated 2005).

Entries after “also recorded” stand apart in the source; their conditions may differ.

Turning to `O=C(O)C1Oc2ccc(S(=O)(=O)n3c(=O)[nH]c4cc(Cl)ccc4c3=O)cc2NC1=O` (racemic) [Compound 29, (±)-6-[(7-chloro-2,4(1H,3H)-quinazolinedione-3-yl)sulfonyl]-3-oxo-1,4-benzoxadine-2-carboxylic acid], at Human heart chymase, inhibition was half-maximal at 1700 nM (IC50).

On to `CC(C(=O)O)C(=O)Nc1cccc(S(=O)(=O)n2c(=O)[nH]c3cc(Cl)ccc3c2=O)c1` (centres unmarked) [Compound 13, 2-{3-[(7-chloro-2,4(1H,3H)-quinazolinedione-3-yl)sulfonyl]phenylaminocarbonyl}propionic acid], for which half-maximal inhibition at Human heart chymase (IC50) required 300 nM. Besides, the “t1/2 (plasma half life)” value in data set [1] came to 1.62 h.

With `Nc1cc(S(=O)(=O)n2c(=O)[nH]c3cc(Cl)ccc3c2=O)ccc1C(=O)[O-].[Na+]` [Compound 18, 4-[(7-chloro-2,4(1H,3H)-quinazolinedione-3-yl)sulfonyl]anthranilic acid monosodium salt], the “lipid deposition area in the aortic cusp region” value in data set [2] (FIG. 1, monosodium salt, 100 mg/kg/day) is on record as “decreased; also recorded: significantly suppressed”. Moreover, the “lipid deposition in the aorta (microscopic examination of the aortic cusp)” value in data set [2] (Oil red O staining) was “completely disappeared”.
